Assay results from article PMC3170264 (Retrovirology, 2011).

Legend:
Type in all cases: biochemical
HIV-2 N1 IN = molecular target: T1, HIV-2 N1 IN (Human immunodeficiency virus type 2 subtype B, UniProt Q89928, I1218V/I1301V/I1372V/M1455R/N1185G/N1438H/R1202K/R1392Q/T1348V/T1383A/V1460M); experiment: strand transfer inhibition, IN from clinical isolate N1 (wild-type reference); settings: IN from RAL-naive patient N1; 200 nM IN; 37°C; Mg2+
T1 construct: His-tag (pET-15b) (N); made in house; host or cells: Escherichia coli BL21-CodonPlus (DE3)-RIPL
T1 sequence (Q89928 1169-1464 N1185G/R1202K/I1218V/I1301V/T1348V/I1372V/T1383A/R1392Q/N1438H/M1455R/V1460M limits assumed): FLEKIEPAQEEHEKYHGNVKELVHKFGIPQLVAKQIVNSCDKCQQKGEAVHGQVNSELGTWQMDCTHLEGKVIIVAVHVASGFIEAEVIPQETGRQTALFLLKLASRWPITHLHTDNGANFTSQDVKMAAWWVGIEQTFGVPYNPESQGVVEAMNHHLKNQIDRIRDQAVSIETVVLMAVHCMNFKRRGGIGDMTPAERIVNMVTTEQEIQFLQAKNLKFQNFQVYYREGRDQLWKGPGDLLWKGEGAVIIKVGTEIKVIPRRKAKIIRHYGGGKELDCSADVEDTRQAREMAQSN
Method: The ST reaction was performed using a ^32P-labeled oligonucleotide mimicking the preprocessed substrate. Drug concentrations are indicated above each lane. […] Activity is expressed as a % of control without drug. Experiments were repeated two times.
(§1) The HIV-2 ODN substrate sequences were: UA: 5'-[…]-3'; U5B: 5'-[…]-3'; U5B-2: 5'-[…] […]-3'.

[1] = molecular target: T2, HIV-2 IN G140S/Q148R (T3) (Human immunodeficiency virus type 2 subtype A, UniProt P04584, A1212T/E1378D/G1311S/I1304V/I1351V/I1372T/M1463V/Q1319R/R1205K/R1395Q/S1188G/S1210T/T1231V/V1190I); experiment: strand transfer inhibition, IN from clinical isolate T3; settings: clinical isolate T3, G140S/Q148R double mutant; IC50 not reached at concentrations up to 1 μM
T2 construct: His-tag (pET-15b) (N); made in house; host or cells: Escherichia coli BL21-CodonPlus (DE3)-RIPL
T2 sequence (P04584 1172-1464 S1188G/V1190I/R1205K/S1210T/A1212T/T1231V/I1304V/G1311S/Q1319R/I1351V/I1372T/E1378D/R1395Q/M1463V): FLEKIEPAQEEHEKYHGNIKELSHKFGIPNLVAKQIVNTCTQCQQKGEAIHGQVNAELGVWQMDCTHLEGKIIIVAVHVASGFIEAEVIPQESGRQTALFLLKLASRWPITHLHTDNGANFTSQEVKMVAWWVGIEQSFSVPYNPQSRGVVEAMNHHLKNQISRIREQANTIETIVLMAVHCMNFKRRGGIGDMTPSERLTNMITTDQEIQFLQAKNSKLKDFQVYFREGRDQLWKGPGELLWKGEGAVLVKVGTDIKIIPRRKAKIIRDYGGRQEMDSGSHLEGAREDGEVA
Method: Activity is expressed as a % of control without drug. Experiments were performed two times.
as §1

HIV-2 IN Q148R = molecular target: T3, HIV-2 IN Q148R (Human immunodeficiency virus type 2 subtype B, UniProt Q89928, I1218V/I1301V/I1372V/M1455R/N1185G/N1438H/Q1316R/R1202K/R1392Q/T1348V/T1383A/V1460M); experiment: susceptibility to RAL, site-directed mutant in N1 background; settings: preliminary studies with high protein concentrations
T3 construct: His-tag (pET-15b) (N); made in house; host or cells: Escherichia coli BL21-CodonPlus (DE3)-RIPL
T3 sequence (Q89928 with tags, fused parts or gaps N1185G/R1202K/I1218V/I1301V/Q1316R/T1348V/I1372V/T1383A/R1392Q/N1438H/M1455R/V1460M): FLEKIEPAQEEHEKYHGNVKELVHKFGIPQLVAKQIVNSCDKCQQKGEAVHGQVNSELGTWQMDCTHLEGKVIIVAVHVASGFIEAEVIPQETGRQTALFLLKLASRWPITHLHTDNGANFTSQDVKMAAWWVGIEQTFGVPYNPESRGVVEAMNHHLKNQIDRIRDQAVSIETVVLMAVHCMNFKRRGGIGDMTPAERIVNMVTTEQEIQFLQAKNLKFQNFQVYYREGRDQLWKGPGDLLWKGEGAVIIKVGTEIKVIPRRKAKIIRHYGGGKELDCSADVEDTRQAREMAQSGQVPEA
Source text: Primer 1: N1, N2, T1, T2, 5'-[…]-3'; N3, 5'-[…] […]-3'; T3-T7, 5'-[…]-3'. Primers 2: N1, 5'-[…]-3'; N2, 5'-[…] […]-3'; N3, 5'-[…] C-3'; T1, T2, 5'-[…]-3'; T3-T7, 5'-GGATC […] -3'.
as §1

Q: `Cc1nnc(C(=O)NC(C)(C)c2nc(C(=O)NCc3ccc(F)cc3)c(O)c(=O)n2C)o1` [RAL, raltegravir] was tested. Which IC50 (HIV-2 N1 IN) did it give?
A: The IC50 was 23 nM.

Q: What about the IC50 [1] of the same compound?
A: The IC50 was greater than 1000 nM.

Q: What about the “susceptibility to RAL” value (HIV-2 IN Q148R) of the same compound?
A: The value was “not susceptible”.
